Like-named read-outs stand apart in the source and are kept apart here. Numbered stars: 1 amine (or outer) side, 2 acyl side, 3 side chain; on linkers, the order of the positions; unused ones are H or OH. Bridge positions count the residues as written; N and C are the ends. Square brackets hold non-standard residues; d marks the D form. Peptide text beside a SMILES is read from it. X1 = CC(C)CCCCCCCCC[C@H](CC(=O)[*:1])O[*:2]
How the values were obtained:
[1] = system: Streptomyces turgidiscabies 91SY-12; test: Antibacterial activity against potato scab pathogen: surfactin sodium in agar medium; assay type: cell-based; conditions: 30° C., 3 days
Protocol: Each agar medium was smeared with a spore suspension of the potato scab pathogen Streptomyces turgidiscabies 91SY-12 (hereinafter referred to as “the strain 91SY-12”) and incubated at 30° C. for 3 days.

[2] = system: Streptomyces turgidiscabies 91SY-12; conditions: 10 mg/ml in methanol, 30° C., 11 days
Excerpt: In the same manner as shown in Example 2, the agar medium was smeared with a spore suspension of the strain 91SY-12, and 4 paper disks (8 mm diameter) were placed thereon.

[3] = system: Streptomyces turgidiscabies 91SY-12; conditions: 50 μl per paper disk, 30° C., 6 days
plant pathogens = conditions: surfactin alone; reported in JP 06-135811 A; cited from earlier work

Compound | inhibition of spore formation ([1]; 10 μg/ml in agar medium) | inhibition of spore formation ([1]; 50 μg/ml in agar medium) | inhibition of spore formation ([1]; 100 μg/ml in agar medium) | inhibition of spore formation ([2]; 10 μl per paper disk) | inhibition of spore formation ([2]; 50 μl per paper disk) | inhibition of spore formation ([2]; 100 μl per paper disk) | inhibitory effect on spore formation ([3]; 0.01 mg/ml in methanol) | inhibitory effect on spore formation ([3]; 0.1 mg/ml in methanol) | inhibitory effect on spore formation ([3]; 1.0 mg/ml in methanol) | antibacterial action against plant pathogens (plant pathogens)
CC(C)CCCCCCCCC[C@@H]1CC(=O)N[C@@H](CCC(=O)O)C(=O)N[C@@H](CC(C)C)C(=O)N[C@H](CC(C)C)C(=O)N[C@@H](C(C)C)C(=O)N[C@@H](CC(=O)O)C(=O)N[C@H](CC(C)C)C(=O)N[C@@H](CC(C)C)C(=O)O1 [surfactin sodium] (EL[dL]VD[dL]L; linker N-C via X1) | tendency to inhibit spore formation | tendency to inhibit spore formation | tendency to inhibit spore formation |  |  |  |  |  |  | 
surfactin |  |  |  | strongly inhibited | strongly inhibited | strongly inhibited | no inhibitory effect on spore formation | inhibited, albeit weakly | inhibited strongly | no antibacterial action

Reference: patent US20090123445A1, “Surfactin-Containing Compositions for Controlling Scab Disease in Agricultural Products” (priority 2005, published 2009)
